The text below walks through data of patent US12637435B2, “Nitrogen-containing heterocyclic compound or salt thereof, use thereof, and intermediate thereof” (FUJIFILM Corporation, priority 2020, dated 2026).

Each structure is given as a SMILES string. A value given as a limit tells only on which side of the number the result lay.

The IC50 is the concentration that gives 50% inhibition. The GI50 is the concentration at which growth is held to half of that of the control.

The target in one assay is T1, recombinant human DHODH (Homo sapiens, UniProt Q02127).
T1 construct: DHODH, 31-395aa, Human, His tag, E. coli, ATGP1615; His tag; purchased ATGen Co. Ltd. ATGP1615; host or cells: E. coli
In words: DHODH enzyme reaction inhibition test (DCIP-coupled assay). In kind it is biochemical. To be noted: recombinant human DHODH 0.175 μg/mL, DCIP absorbance 600 nm, 50 minutes, pH 8.0; read-out: Enzyme reaction inhibitory effect (IC50). Summed up: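 Recombinant human DHODH (aa 31-395, His-tagged, E. coli; 0.175 μg/mL) in pH 8.0 Hepes/NaCl/glycerol/Triton buffer with 0.2 mmol/L ubiquinone-10, 0.1 mmol/L DHO, 0.12 mmol/L DCIP, 0.5% DMSO. Substrate-started reaction followed as DCIP absorbance decrease at 600 nm over 50 minutes; IC50 from inhibition versus DMSO control.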

The test system of assay [1] is human myeloid leukemia cell line HL60. Put plainly: Cell growth test, HL60 (CellTiter-Glo). In kind it is cell-based. To be noted: HL-60, 72 h, HL60 cells, 3 days, CellTiter-Glo luminescence, read-out: Cell growth inhibitory effect (GI50). Summed up: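 HL60 cells at 1×10^3 per well in RPMI 1640/10% FBS, compound added after overnight culture and incubated 3 days. Viable cells measured by CellTiter-Glo luminescence relative to DMSO wells; GI50 calculated from growth inhibition rates.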
(In general: In ATP-based viability assays light output follows the ATP content of the culture.)

The subject of another assay is HL60 subcutaneous tumor. Put plainly: In vivo drug efficacy test in cancer-bearing mouse model with subcutaneous transplantation of HL60. To be noted: HL60 subcutaneous xenograft, female NOD/scid mice, oral 2.5 to 10 mg/kg once a day for 10 to 12 days. The text has this: (Drug Efficacy Test in Cancer-Bearing Mouse Model with Subcutaneous Transplantation of HL60)
The human acute myeloid leukemia cell line HL60 (available from JCRB) was suspended in a mixture of RPMI-1640 culture medium and Matrigel (available from Corning Inc.), and then subcutaneously transplanted into 6-week-old female NOD/scid mice (available from CLEA Japan, Inc.). The test compound was dispersed in a solvent (0.5% aqueous methylcellulose solution), and from the time when tumor engraftment was visually confirmed, the test compound was orally administered to mice at a dose of 2.5 to 10 mg/kg once a day for 10 to 12 days. A solvent administration group to which a 0.5% aqueous methylcellulose solution was administered was provided as a negative control. The tumor diameter was measured over time and the tumor volume was calculated. The tumor volume was calculated by measuring the major axis and the minor axis of the tumor and using the following expression. Tumor volume (mm^3)=[major axis (mm)×minor axis (mm)×minor axis (mm)]/2
T/C (%) was calculated from the average tumor volume of each group by the following expression, and the drug efficacy was evaluated. T/C (%)=(average tumor volume of drug-administered group)/(average tumor volume of solvent-administered group)×100%

T1 sequence (Q02127 31-395): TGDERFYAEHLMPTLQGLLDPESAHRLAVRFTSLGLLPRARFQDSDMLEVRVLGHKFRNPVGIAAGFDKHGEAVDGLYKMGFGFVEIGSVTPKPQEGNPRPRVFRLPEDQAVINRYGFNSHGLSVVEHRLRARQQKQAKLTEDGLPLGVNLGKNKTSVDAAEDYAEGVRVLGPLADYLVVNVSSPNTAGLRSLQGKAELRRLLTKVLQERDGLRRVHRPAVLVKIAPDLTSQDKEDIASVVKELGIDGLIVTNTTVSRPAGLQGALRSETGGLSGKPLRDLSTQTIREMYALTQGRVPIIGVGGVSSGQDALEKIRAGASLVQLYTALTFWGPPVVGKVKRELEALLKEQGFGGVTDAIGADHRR

As for `N#Cc1ccc(-c2cccc(Nc3ncc(C4CC4)nc3C(=O)NS(N)(=O)=O)c2OCC(F)(F)F)cc1` [Example 3-41], the IC50 on recombinant human DHODH was less than 10 nM. For the same compound, the GI50 in assay [1] is less than 100 nM. The “tumor growth inhibition rate (T/C from tumor volume)” value (from here on “tumor growth inhibition rate”) with HL60 subcutaneous tumor is on record as “excellent tumor growth inhibition rate”.

For `CS(=O)(=O)NC(=O)c1nc(C2CC2)cnc1Nc1cccc(C2CCOCC2)c1OCC(F)(F)F` [Example 3-30], at recombinant human DHODH, the IC50 is less than 10 nM. Besides, in assay [1], the GI50 was less than 100 nM. The “tumor growth inhibition rate” value with HL60 subcutaneous tumor is “excellent tumor growth inhibition rate”.

As to `CS(=O)(=O)NC(=O)c1nc(C2CC2)cnc1Nc1cccc(C2=CCOCC2)c1OCC(F)(F)F` [Example 1-2, 6-cyclopropyl-3-((3-(3,6-dihydro-2H-pyran-4-yl)-2-(2,2,2-trifluoroethoxy)phenyl)amino)-N-(methylsulfonyl)pyrazine-2-carboxamide], the 50% inhibitory concentration (IC50) on recombinant human DHODH is less than 10 nM. The concentration for 50% growth inhibition (GI50) in assay [1] is less than 100 nM. Besides, the “tumor growth inhibition rate” value with HL60 subcutaneous tumor was “excellent tumor growth inhibition rate”.

Take `O=C(O)c1cc(C2CC2)cnc1Nc1cc(F)cc(C2CCOCC2)c1OCC(F)(F)F` [Example 2-8]: the IC50 on recombinant human DHODH was less than 10 nM. For the same compound, the GI50 in assay [1] was less than 100 nM.

`O=C(O)c1cc(C2CC2)ncc1Nc1cccc(C2=CCOCC2)c1OCC(F)(F)F` [Example 2-16]: the IC50 on recombinant human DHODH was less than 10 nM. The GI50 in assay [1] lay within 100 to 1000 nM.

As to `N#CNC(=O)c1nc(C2CC2)cnc1Nc1cccc(-c2ccc(C#N)cc2)c1OCC(F)(F)F` [Example 3-33], the IC50 on recombinant human DHODH is less than 10 nM. Also, in assay [1], the GI50 is less than 100 nM.

In the case of `C[C@H](Oc1c(Nc2ncc(C3CC3)nc2C(=O)NC#N)cccc1C1=CCOCC1)C(F)(F)F` [Example 3-31], at recombinant human DHODH, the IC50 was less than 10 nM. Besides, in assay [1], the concentration for 50% growth inhibition (GI50) is less than 100 nM.

For the compound `CCOc1c(Nc2ncc(C3CC3)cc2C(=O)O)ccc(F)c1C1=CCOCC1` [Example 2-15], at recombinant human DHODH, the IC50 was less than 10 nM. The GI50 in assay [1] is less than 100 nM.

Consider `NNC(=O)c1nc(C2CC2)cnc1Nc1cccc(C2=CCOCC2)c1OCC(F)(F)F` [Example 1-8, 6-cyclopropyl-3-((3-(3,6-dihydro-2H-pyran-4-yl)-2-(2,2,2-trifluoroethoxy)phenyl)amino)pyrazine-2-carbohydrazide], for which the IC50 at recombinant human DHODH is 10 to 100 nM. The GI50 in assay [1] fell in the range of 100 to 1000 nM.

On to `CS(=O)(=O)NC(=O)c1nc(C2CC2)cnc1Nc1cccc(C2CCOCC2)c1OC(F)F` [Example 3-49], for which, on recombinant human DHODH, the IC50 is less than 10 nM. Besides, the GI50 in assay [1] was less than 100 nM.

For `C[C@H](Oc1c(Nc2ncc(C3CC3)nc2C(=O)NS(N)(=O)=O)cccc1C1CCOCC1)C(F)(F)F` [Example 3-7], the IC50 on recombinant human DHODH is less than 10 nM. Besides, the GI50 in assay [1] lay in the range of 100 to 1000 nM.

`NC(=O)c1nc(C2CC2)cnc1Nc1cccc(C2=CCOCC2)c1OCC(F)(F)F` [Example 1-1, 6-cyclopropyl-3-((3-(3,6-dihydro-2H-pyran-4-yl)-2-(2,2,2-trifluoroethoxy)phenyl)amino)pyrazine-2-carboxamide]: at recombinant human DHODH, the IC50 was in the range of 10 to 100 nM. In assay [1], the GI50 was less than 100 nM.

On to `CS(=O)(=O)NC(=O)c1nc(C2CC2)cnc1Nc1cccc(-c2ccc(C#N)cc2)c1OCC(F)(F)F` [Example 3-23], for which the IC50 on recombinant human DHODH is less than 10 nM. Besides, the GI50 in assay [1] is less than 100 nM.

Regarding `CCc1cnc(Nc2cccc(C3=CCOCC3)c2OCC(F)(F)F)c(C(=O)NS(C)(=O)=O)n1` [Example 3-66], the IC50 at recombinant human DHODH was less than 10 nM. Further, the GI50 in assay [1] lay in the range of 100 to 1000 nM.

With `Cc1cc(C#N)ccc1-c1cccc(Nc2ncc(C3CC3)nc2C(=O)NS(C)(=O)=O)c1OCC(F)(F)F` [Example 3-16], on recombinant human DHODH, the IC50 was less than 10 nM. In addition, the GI50 in assay [1] is less than 100 nM.

For `CCc1c(Nc2ncc(C3CC3)cc2C(=O)O)cccc1C1CCOCC1` [Example 2-10], the IC50 on recombinant human DHODH was less than 10 nM. Besides, in assay [1], the GI50 was less than 100 nM.

With `CONC(=O)c1nc(C2CC2)cnc1Nc1cccc(C2=CCOCC2)c1OCC(F)(F)F` [Example 3-5], on recombinant human DHODH, the IC50 was less than 10 nM. For the same compound, the GI50 in assay [1] was less than 100 nM.

For the compound `N#Cc1cccc(-c2cccc(Nc3ncc(C4CC4)nc3C(=O)O)c2OCC(F)(F)F)c1` [Example 2-9], the IC50 at recombinant human DHODH was less than 10 nM. In assay [1], the GI50 is less than 100 nM.

Consider `CCOc1ccc(Nc2ncc(C3CC3)nc2C(=O)NS(C)(=O)=O)c(OCC)c1C1=CCOCC1` [Example 3-58], for which the concentration for half-maximal inhibition (IC50) at recombinant human DHODH was less than 10 nM. Moreover, the GI50 in assay [1] is less than 100 nM.

In the case of `CS(=O)(=O)NC(=O)c1nc(C2CC2)cnc1Nc1cccc(-c2cccc(C#N)c2)c1OCC(F)(F)F` [Example 3-45], the IC50 on recombinant human DHODH was less than 10 nM. Besides, in assay [1], the GI50 is less than 100 nM.

For `N#CNC(=O)c1nc(C2CC2)cnc1Nc1cc(F)cc(C2=CCOCC2)c1OCC(F)(F)F` [Example 3-38], at recombinant human DHODH, the IC50 was less than 10 nM. In addition, the GI50 in assay [1] is less than 100 nM.
